The subject of this assay is COL1A1. The assay can be described thus: Gene expression custom microarray, pooled keratinocyte line (Example 3): COL1A1. The assay is classed as cell-based, human. The following applies: pooled keratinocytes, 20 ppm, 24 hr. Here is the method: Cell cultures: Received and began culture of pooled keratinocyte line from Promocell (C-12006; Lot #448Z026). Cells were seeded into a 75 cm2 flask and 2 6 well dishes for expansion and exposure per manufacturer's protocol using Keratinocyte Growth Medium (C2011B), Keratinocyte Supplement Mix (C39016) and CaCl (C34005). 2 ml of prepared solution were added to each of the 6 wells and 7 ml was added to the 75 cm2 flask.
Experimental phase: When the appropriate quantity of cells were grown, they were detached as described above, but at the final step were seeded into each well of one or more 6 well dishes. Each well received 2 ml of the cells suspended in suspension so they were seeded equally. The dishes were returned to the incubator until 85-95% confluency is reached.
It was at this stage that all wells were rinsed in PBS after aspirating the growth media. The compound(s) to be tested were previously mixed into a suitable solvent (e.g., DMSO or ethanol) that can be diluted to the desired concentration of test compound (10 μl) in the culture wells without exceeding maximum solvent concentrations and adversely effecting cell viability, and mixed with Basal Keratinocyte Media. NOTE: Standard maximum levels of solvent are 0.1% for DMSO and 0.5% for ETOH. The concentration for each tested compound/natural extract is generally listed in the left-hand column of Table 4. For certain compositions (e.g., compositions 15 and 16), other concentrations were used and are noted in the body of Table 4.
Every 2 wells on the 6 well plate served as a biological replicate for the purposes of RNA isolation and genetic expression evaluations making each 6 well dish an n=3 for the test compound contained in the media. […]
At the end of the 24 hr time period, the plates were removed from the incubator, the test media aspirated, and the cells rinsed with PBS. […] Allow 1 minute for saturation of the membrane and then centrifuge for 2 minutes to complete the RNA elution. • Quantify the quantity of RNA and store at −20 C° until use (no more than 1 month) […]
For `C=C(C)[C@@H]1CCC(C)=C[C@H]1c1c(O)cc(CCCCC)cc1O` [CBD, cannabidiol, reference compound], the “↑COL1A1 gene expression, fold increase or decrease vs untreated cells” value is given as 1.6 fold.

`CC(C)[C@]12O[C@H]1[C@@H]1O[C@]13[C@]1(O[C@H]1C[C@H]1C4=C(CC[C@@]13C)C(=O)OC4)[C@@H]2O` [Triptolide]: the “↑COL1A1 gene expression, fold increase or decrease vs untreated cells” value was −1.3 fold.

`CCCCCCCCCCCCCCCC(=O)NCCO` [N-palmitoylethanolamide]: the “↑COL1A1 gene expression, fold increase or decrease vs untreated cells” value was −2 fold.

These data come from US20220202739A1, “ENDOCANNABINOID MIMETIC AND ANTI-INFLAMMATORY COMPOUND CONTAINING COMPOSITIONS, METHODS OF PREPARATION AND USES THEREOF” (priority 2019, published 2022).
